Target: T1, CFTR in primary human bronchial epithelial cells from a ΔF508 homozygous CF donor (CF-HBE cells) (Homo sapiens, UniProt P13569, DEL508-508)
T1 construct: Primary human bronchial epithelial cells from a ΔF508 homozygous CF donor; host or cells: primary human bronchial epithelial cells (CF-HBE), ΔF508 homozygous donor
Assay: TECC24 recording analysis of CFTR-mediated transepithelial chloride transport (AUC fold over DMSO)
Assay type: cell-based
Conditions: 3 μM test agent, CF-HBE cells cultured 48 hours at 36.5° C.; ratio of test agent AUC of forskolin-stimulated IEQ divided by vehicle (DMSO) AUC
Method: Example 31: TECC24 AUC Fold Over DMSO @ 3 μM
The effects of a test agent on CFTR-mediated transepithelial chloride transport was measured using TECC24 recording analysis. Test agents were solubilized in DMSO. Solubilized test agents were mixed with incubation medium containing DMEM/F12, Ultroser G (2%; Crescent Chemical, catalog #67042), Hyclone Fetal Clone II (2%; GE Healthcare, catalog #SH30066.02), bovine brain extract (0.25%; Lonza, catalog #CC-4098), insulin (2.5 μg/mL), IL-13 (10 ng/mL), hydrocortisone (20 nM), transferrin (2.5 μg/mL), triiodothyronine (500 nM), ethanolamine (250 nM), epinephrine (1.5 μM), phosphoethanolamine (250 nM), and retinoic acid (10 nM). Primary human bronchial epithelial cells from a ΔF508 homozygous CF donor (CF-HBE cells; from University of North Carolina Cystic Fibrosis Tissue Procurement Center), grown on Transwell HTS 24-well cell culture inserts (Costar, catalog #3378), were exposed to test agents or controls dissolved in incubation medium. The CF-HBE cells were cultured at 36.5° C. for 48 hours before TECC24 recordings were performed in the presence or absence of test agent, a positive control or vehicle (DMSO).
Following incubation, the transwell cell culture inserts containing the test agent or control-treated CF-HBE cells were loaded onto a TECC24 apparatus (TECC v7 or MTECC v2; EP Design) to record the transepithelial voltage (VT) and resistance (TEER) using 4 AgCl electrodes per well configured in current-clamp mode. The apical and basolateral bath solutions both contained (in mM) 140 NaCl, 5 KCl, 2 CaCl2), 1 MgCl2, 10 Hepes, and 10 glucose (adjusted to pH 7.4 with NaOH). To inhibit basal Na+ absorption, the ENaC inhibitor benzamil (10 μM) was added to the bath. Then, the adenylate cyclase activator, forskolin (10 μM), was added to the bath to activate CFTR. The forskolin-stimulated Cl-transport was halted by addition of bumetanide (20 μM), an inhibitor of the basolateral chloride co-transporter NKCC1, to the bath to confirm that the detected signal was chloride dependent. VT and TEER recordings were digitally acquired at routine intervals using TECC or MTECC software (EP Design). VT and TEER were transformed into equivalent transepithelial Cl-current (IEQ), and the Area Under the Curve (AUC) of the IEQ time course between forskolin and bumetanide addition is generated using Excel (Microsoft). Efficacy is expressed as the ratio of the test agent AUC divided by vehicle AUC. EC50s based on AUC are generated using the non-linear regression log(agonist) vs. response function in Prism software (GraphPad) with Hill Slope fixed=1.
If a test agent increased the AUC of the forskolin-stimulated IEQ relative to vehicle in CF-HBE cells, and this increase was inhibited by bumetanide, then the test agent was considered a CFTR corrector.

T1 sequence (P13569 with tags, fused parts or gaps DEL508-508): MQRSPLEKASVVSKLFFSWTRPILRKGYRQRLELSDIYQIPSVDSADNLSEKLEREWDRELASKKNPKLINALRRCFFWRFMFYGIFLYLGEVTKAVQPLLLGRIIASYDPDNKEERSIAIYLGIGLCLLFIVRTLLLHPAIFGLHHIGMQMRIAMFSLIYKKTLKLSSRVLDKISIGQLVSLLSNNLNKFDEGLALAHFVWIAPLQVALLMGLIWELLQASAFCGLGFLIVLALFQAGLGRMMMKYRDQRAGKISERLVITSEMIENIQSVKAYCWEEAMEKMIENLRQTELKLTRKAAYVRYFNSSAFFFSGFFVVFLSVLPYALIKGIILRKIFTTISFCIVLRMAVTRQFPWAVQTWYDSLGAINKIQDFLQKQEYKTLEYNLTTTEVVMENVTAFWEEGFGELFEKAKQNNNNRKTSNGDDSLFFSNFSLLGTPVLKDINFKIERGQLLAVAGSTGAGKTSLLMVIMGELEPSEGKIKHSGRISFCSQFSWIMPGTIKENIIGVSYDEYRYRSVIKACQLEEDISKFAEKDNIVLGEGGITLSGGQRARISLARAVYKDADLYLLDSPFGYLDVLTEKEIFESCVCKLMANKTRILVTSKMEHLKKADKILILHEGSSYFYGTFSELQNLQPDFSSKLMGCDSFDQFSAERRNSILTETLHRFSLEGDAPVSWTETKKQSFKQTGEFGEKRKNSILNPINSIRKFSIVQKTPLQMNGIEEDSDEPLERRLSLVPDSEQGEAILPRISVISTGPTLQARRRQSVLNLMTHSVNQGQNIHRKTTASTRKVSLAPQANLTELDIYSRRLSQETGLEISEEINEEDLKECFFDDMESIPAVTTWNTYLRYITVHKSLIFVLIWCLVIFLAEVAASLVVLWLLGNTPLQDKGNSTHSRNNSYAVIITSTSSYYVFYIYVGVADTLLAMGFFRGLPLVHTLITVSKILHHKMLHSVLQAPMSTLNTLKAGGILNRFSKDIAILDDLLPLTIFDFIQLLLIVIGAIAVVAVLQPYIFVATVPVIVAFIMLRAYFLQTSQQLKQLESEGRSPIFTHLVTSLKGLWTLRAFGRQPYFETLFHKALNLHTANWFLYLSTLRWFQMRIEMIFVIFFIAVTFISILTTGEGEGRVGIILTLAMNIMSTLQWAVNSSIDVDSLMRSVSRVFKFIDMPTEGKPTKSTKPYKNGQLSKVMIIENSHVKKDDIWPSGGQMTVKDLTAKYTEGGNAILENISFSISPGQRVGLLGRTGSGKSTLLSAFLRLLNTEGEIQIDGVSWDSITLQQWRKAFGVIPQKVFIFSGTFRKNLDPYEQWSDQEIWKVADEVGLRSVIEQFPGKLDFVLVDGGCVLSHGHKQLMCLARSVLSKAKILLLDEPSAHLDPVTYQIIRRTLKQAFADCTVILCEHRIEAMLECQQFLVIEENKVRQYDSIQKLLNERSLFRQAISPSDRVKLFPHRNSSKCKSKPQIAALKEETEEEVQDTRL

TECC24 AUC vs. DMSO (@3 μM)	SMILES
B (“B” refers to AUC between 2-5)	O=S(=O)(Nc1ncc(-c2cccc([C@H]3CC[C@H](OC(F)(F)F)C3)c2)c(-c2ccccc2C(F)(F)F)n1)c1ccccc1 (single isomer, unassigned) [Example 27a]
A (“A “refers to AUC > 5)	O=S(=O)(Nc1ncc(-c2cccc([C@H]3CC[C@@H](OC(F)(F)F)C3)c2)c(-c2ccccc2C(F)(F)F)n1)c1ccccc1 (single isomer, unassigned) [Example 27b]
A (“A “refers to AUC > 5)	O=S(=O)(Nc1ncc(-c2cccc([C@@H]3CC[C@H](OC(F)(F)F)C3)c2)c(-c2ccccc2C(F)(F)F)n1)c1ccccc1 (single isomer, unassigned) [Example 28a]
A (“A “refers to AUC > 5)	O=S(=O)(Nc1ncc(-c2cccc([C@@H]3CC[C@@H](OC(F)(F)F)C3)c2)c(-c2ccccc2C(F)(F)F)n1)c1ccccc1 (single isomer, unassigned) [Example 28b]
B (“B” refers to AUC between 2-5)	Nc1cccc(S(=O)(=O)Nc2ncc(-c3cccc([C@H]4CC[C@@H](OC(F)(F)F)C4)c3)c(-c3ccccc3C(F)(F)F)n2)c1 (single isomer, unassigned) [Example 29a]
B (“B” refers to AUC between 2-5)	Nc1cccc(S(=O)(=O)Nc2ncc(-c3cccc([C@H]4CC[C@H](OC(F)(F)F)C4)c3)c(-c3ccccc3C(F)(F)F)n2)c1 (single isomer, unassigned) [Example 29b]
B (“B” refers to AUC between 2-5)	Nc1cccc(S(=O)(=O)Nc2ncc(-c3cccc([C@@H]4CC[C@H](OC(F)(F)F)C4)c3)c(-c3ccccc3C(F)(F)F)n2)c1 (single isomer, unassigned) [Example 30a]
A (“A “refers to AUC > 5)	Nc1cccc(S(=O)(=O)Nc2ncc(-c3cccc([C@@H]4CC[C@@H](OC(F)(F)F)C4)c3)c(-c3ccccc3C(F)(F)F)n2)c1 (single isomer, unassigned) [Example 30b]
C (“C” refers to AUC < 2)	CC(C)(C)COc1cc(-c2ccc(NS(=O)(=O)c3ccccc3)nc2-c2ccc(C(F)(F)F)cc2)ccc1Cl [Example 14, N-(5-(4-chloro-3-(neopentyloxy)phenyl)-6-(4-(trifluoromethyl)phenyl)pyridin-2-yl)benzenesulfonamide]

The remaining lines, values behind:

SMILES	TECC24 AUC vs. DMSO (@3 μM)
Cc1cccc(C)c1-c1nc(NS(=O)(=O)c2ccccc2)cnc1-c1cccc([C@@H]2CC[C@H](OC(F)(F)F)C2)c1 (single isomer, unassigned) [Example 6a]	B (“B” refers to AUC between 2-5)
Cc1cccc(C)c1-c1nc(NS(=O)(=O)c2ccccc2)cnc1-c1cccc([C@@H]2CC[C@@H](OC(F)(F)F)C2)c1 (single isomer, unassigned) [Example 6b]	A (“A “refers to AUC > 5)
Cc1cccc(C)c1-c1nc(NS(=O)(=O)c2cn(C)nc2C)cnc1-c1cccc([C@@H]2CC[C@H](OC(F)(F)F)C2)c1 (single isomer, unassigned) [Example 7a]	C (“C” refers to AUC < 2)
Cc1cccc(C)c1-c1nc(NS(=O)(=O)c2cn(C)nc2C)cnc1-c1cccc([C@@H]2CC[C@@H](OC(F)(F)F)C2)c1 (single isomer, unassigned) [Example 7b]	B (“B” refers to AUC between 2-5)
Cc1nn(C)cc1S(=O)(=O)Nc1cnc(-c2cccc([C@@H]3CC[C@H](OC(F)(F)F)C3)c2)c(-c2ccccc2C(C)C)n1 (single isomer, unassigned) [Example 8a]	C (“C” refers to AUC < 2)
Cc1nn(C)cc1S(=O)(=O)Nc1cnc(-c2cccc([C@@H]3CC[C@@H](OC(F)(F)F)C3)c2)c(-c2ccccc2C(C)C)n1 (single isomer, unassigned) [Example 8b]	B (“B” refers to AUC between 2-5)
CC(C)c1ccccc1-c1nc(NS(=O)(=O)c2ccccc2)cnc1-c1cccc([C@@H]2CC[C@H](OC(F)(F)F)C2)c1 (single isomer, unassigned) [Example 9a]	C (“C” refers to AUC < 2)
CC(C)c1ccccc1-c1nc(NS(=O)(=O)c2ccccc2)cnc1-c1cccc([C@@H]2CC[C@@H](OC(F)(F)F)C2)c1 (single isomer, unassigned) [Example 9b]	C (“C” refers to AUC < 2)
CC(C)n1nccc1-c1nc(NS(=O)(=O)c2ccccc2)cnc1-c1cccc([C@@H]2CCC(OC(F)(F)F)C2)c1 (single isomer, unassigned) [Example 10a]	C (“C” refers to AUC < 2)
CC(C)n1nccc1-c1nc(NS(=O)(=O)c2ccccc2)cnc1-c1cccc([C@@H]2CC[C@@H](OC(F)(F)F)C2)c1 (single isomer, unassigned) [Example 10b]	C (“C” refers to AUC < 2)
CC(C)c1ccccc1-c1nc(NS(=O)(=O)c2ccccc2)cnc1-c1cccc(OCC(F)(F)C(C)(C)C)c1 [Example 1, N-(5-(3-(2,2-difluoro-3,3-dimethylbutoxy)phenyl)-6-(2-isopropylphenyl)pyrazin-2-yl)benzenesulfonamide]	A (“A “refers to AUC > 5)
Cc1cccc(C)c1-c1nc(NS(=O)(=O)c2ccccc2)cnc1-c1cccc(OCC(F)(F)C(C)(C)C)c1 [Example 2, N-(5-(3-(2,2-difluoro-3,3-dimethylbutoxy)phenyl)-6-(2,6-dimethylphenyl)pyrazin-2-yl)benzenesulfonamide]	A (“A “refers to AUC > 5)
Cc1cccc(C)c1-c1nc(NS(=O)(=O)c2ccccc2)cnc1-c1cccc(OCCC(C)(C)C)c1 [Example 3, N-(5-(3-(3,3-dimethylbutoxy)phenyl)-6-(2,6-dimethylphenyl)pyrazin-2-yl)benzenesulfonamide]	A (“A “refers to AUC > 5)
Cc1cccc(C)c1-c1nc(NS(=O)(=O)c2ccccc2)cnc1-c1ccc(F)c(OCC(C)(C)C(F)(F)F)c1 [Example 4, N-(6-(2,6-dimethylphenyl)-5-(4-fluoro-3-(3,3,3-trifluoro-2,2-dimethylpropoxy)phenyl)pyrazin-2-yl)benzenesulfonamide]	A (“A “refers to AUC > 5)
CC(C)c1ccccc1-c1nc(NS(=O)(=O)c2ccccc2)cnc1-n1ccc(OCC(F)(F)C(C)(C)C)n1 [Example 5, N-(5-(3-(2,2-difluoro-3,3-dimethylbutoxy)-1H-pyrazol-1-yl)-6-(2-isopropylphenyl)pyrazin-2-yl)benzenesulfonamide]	A (“A “refers to AUC > 5)
Cc1nn(C)cc1S(=O)(=O)Nc1cnc(-c2cccc([C@@H]3CC[C@@H](OC(F)(F)F)C3)c2)c(-c2ccnn2C(C)C)n1 [Example 11, N-(6-(1-isopropyl-1H-pyrazol-5-yl)-5-(3-((1R,3R)-3-(trifluoromethoxy)cyclopentyl)phenyl)pyrazin-2-yl)-1,3-dimethyl-1H-pyrazole-4-sulfonamide]	C (“C” refers to AUC < 2)
CC(C)(C)COc1cc(-c2ccc(NS(=O)(=O)c3cccc(Cl)n3)nc2-c2ccc(C(F)(F)F)cc2)ccc1Cl [Example 12, 6-chloro-N-(5-(4-chloro-3-(neopentyloxy)phenyl)-6-(4-(trifluoromethyl)phenyl)pyridin-2-yl)pyridine-2-sulfonamide]	B (“B” refers to AUC between 2-5)
CC(C)(C)COc1cc(-c2ccc(NS(=O)(=O)c3cccc(N)n3)nc2-c2ccc(C(F)(F)F)cc2)ccc1Cl [Example 13, 6-amino-N-(5-(4-chloro-3-(neopentyloxy)phenyl)-6-(4-(trifluoromethyl)phenyl)pyridin-2-yl)pyridine-2-sulfonamide]	C (“C” refers to AUC < 2)
Cc1cccc(C)c1-c1nc(NS(=O)(=O)c2ccccc2)ccc1-c1cccc(OCCC(C)(C)C)c1 [Example 15, N-(5-(3-(3,3-dimethylbutoxy)phenyl)-6-(2,6-dimethylphenyl)pyridin-2-yl)benzenesulfonamide]	A (“A “refers to AUC > 5)

— patent publication US12583824B2 (Genzyme Corporation, priority 2019, dated 2026)
